In ChEMBL document CHEMBL1649191, “Genetic organization of transposase regions surrounding blaKPC carbapenemase genes on plasmids from Klebsiella strains isolated in a New York City hospital” (2009):
Converted amounts (≈) assume the structure as drawn.

Legend:
Type in all cases: functional
[1] = system: Klebsiella pneumoniae; experiment: Antimicrobial activity against blaKPC-positive Klebsiella pneumoniae S12 by broth microdilution method
[2] = system: Klebsiella pneumoniae; experiment: Antimicrobial activity against blaKPC-positive Klebsiella pneumoniae S15 by broth microdilution method
[3] = system: Klebsiella pneumoniae; experiment: Antimicrobial activity against blaKPC-positive Klebsiella pneumoniae S2 by broth microdilution method
[4] = system: Klebsiella pneumoniae; experiment: Antimicrobial activity against blaKPC-positive Klebsiella pneumoniae S10 by broth microdilution method
[5] = system: Klebsiella pneumoniae; experiment: Antimicrobial activity against blaKPC-positive Klebsiella pneumoniae S9 by broth microdilution method
[6] = system: Klebsiella pneumoniae; experiment: Antimicrobial activity against blaKPC-positive Klebsiella pneumoniae S3 by broth microdilution method
[7] = system: Klebsiella pneumoniae; experiment: Antimicrobial activity against blaKPC-positive Klebsiella pneumoniae S6 by broth microdilution method
[8] = system: Klebsiella pneumoniae; experiment: Antimicrobial activity against blaKPC-positive Klebsiella pneumoniae S4 by broth microdilution method
[9] = system: Klebsiella pneumoniae; experiment: Antimicrobial activity against blaKPC-positive Klebsiella pneumoniae S7 by broth microdilution method
[10] = system: Klebsiella pneumoniae; experiment: Antimicrobial activity against blaKPC-positive Klebsiella pneumoniae S5 by broth microdilution method
[11] = system: Klebsiella pneumoniae; experiment: Antimicrobial activity against blaKPC-positive Klebsiella pneumoniae S11 by broth microdilution method
[12] = system: Klebsiella oxytoca; experiment: Antimicrobial activity against blaKPC-positive Klebsiella oxytoca S13 by broth microdilution method
[13] = system: Klebsiella pneumoniae; experiment: Antimicrobial activity against blaKPC-positive Klebsiella pneumoniae S8 by broth microdilution method
[14] = system: Klebsiella pneumoniae; experiment: Antimicrobial activity against blaKPC-positive Klebsiella pneumoniae S14 by broth microdilution method
[15] = system: Klebsiella pneumoniae; experiment: Antimicrobial activity against blaKPC-positive Klebsiella pneumoniae S1 by broth microdilution method

| Compound | MIC [1] [µg/mL] | MIC [2] [µg/mL] | MIC [3] [µg/mL] | MIC [4] [µg/mL] | MIC [5] [µg/mL] | MIC [6] [µg/mL] | MIC [7] [µg/mL] | MIC [8] [µg/mL] | MIC [9] [µg/mL] | MIC [10] [µg/mL] | MIC [11] [µg/mL] | MIC [12] [µg/mL] | MIC [13] [µg/mL] | MIC [14] [µg/mL] | MIC [15] [µg/mL] |
| --- | --- | --- | --- | --- | --- | --- | --- | --- | --- | --- | --- | --- | --- | --- | --- |
| CO/N=C(\C(=O)N[C@@H]1C(=O)N2C(C(=O)[O-])=C(C[N+]3(C)CCCC3)CS[C@H]12)c1csc(N)n1 | > 64 | > 64 | > 64 | > 64 | > 64 | > 64 | > 64 | 64 (≈ 133 µM) | > 64 | > 64 | > 64 | > 64 | 64 (≈ 133 µM) | > 64 | 32 (≈ 66.6 µM) |
| NCC[C@H](O)C(=O)N[C@@H]1C[C@H](N)[C@@H](O[C@H]2O[C@H](CN)[C@@H](O)[C@H](O)[C@H]2O)[C@H](O)[C@H]1O[C@H]1O[C@H](CO)[C@@H](O)[C@H](N)[C@H]1O [AMIKACIN] | 16 (≈ 27.3 µM) | 32 (≈ 54.6 µM) | 32 (≈ 54.6 µM) | > 64 | 16 (≈ 27.3 µM) | 32 (≈ 54.6 µM) | 32 (≈ 54.6 µM) | 1 (≈ 1.71 µM) | 1 (≈ 1.71 µM) | 64 (≈ 109 µM) | 2 (≈ 3.42 µM) | 4 (≈ 6.83 µM) | > 64 | 32 (≈ 54.6 µM) | 16 (≈ 27.3 µM) |
| C[C@H]1[C@H](NC(=O)/C(=N\OC(C)(C)C(=O)O)c2csc(N)n2)C(=O)N1S(=O)(=O)O [AZTREONAM] | > 64 | > 64 | > 64 | > 64 | > 64 | > 64 | > 64 | > 64 | > 64 | > 64 | > 64 | > 64 | > 64 | > 64 | > 64 |
| CC(C)(O/N=C(\C(=O)N[C@@H]1C(=O)N2C(C(=O)[O-])=C(C[n+]3ccccc3)CS[C@H]12)c1csc(N)n1)C(=O)O [CEFTAZIDIME] | > 64 | > 64 | > 64 | > 64 | > 64 | 64 (≈ 117 µM) | > 64 | 8 (≈ 14.6 µM) | 32 (≈ 58.5 µM) | > 64 | 16 (≈ 29.3 µM) | > 64 | > 64 | > 64 | > 64 |
| O=C(O)c1cn(C2CC2)c2cc(N3CCNCC3)c(F)cc2c1=O [CIPROFLOXACIN] | < 0.06 | > 64 | > 64 | > 64 | > 64 | > 64 | > 64 | 0.06 (≈ 0.181 µM) | 32 (≈ 96.6 µM) | > 64 | 1 (≈ 3.02 µM) | 0.06 (≈ 0.181 µM) | > 64 | 64 (≈ 193 µM) | > 64 |
| C[C@@H](O)[C@H]1C(=O)N2C(C(=O)O)=C(SCCNC=N)C[C@H]12 [IMIPENEM ANHYDROUS] | 32 (≈ 107 µM) | 64 (≈ 214 µM) | 32 (≈ 107 µM) | 64 (≈ 214 µM) | > 64 | 32 (≈ 107 µM) | 32 (≈ 107 µM) | 8 (≈ 26.7 µM) | 32 (≈ 107 µM) | 64 (≈ 214 µM) | 32 (≈ 107 µM) | 32 (≈ 107 µM) | 64 (≈ 214 µM) | > 64 | 32 (≈ 107 µM) |
| C[C@@H](O)[C@H]1C(=O)N2C(C(=O)O)=C(S[C@@H]3CN[C@H](C(=O)N(C)C)C3)[C@H](C)[C@H]12 [MEROPENEM] | 32 (≈ 83.4 µM) | 64 (≈ 167 µM) | 64 (≈ 167 µM) | 64 (≈ 167 µM) | > 64 | 64 (≈ 167 µM) | 64 (≈ 167 µM) | – | 32 (≈ 83.4 µM) | 64 (≈ 167 µM) | 32 (≈ 83.4 µM) | 32 (≈ 83.4 µM) | 64 (≈ 167 µM) | 64 (≈ 167 µM) | > 64 |
| CN(C)c1cc(NC(=O)CNC(C)(C)C)c(O)c2c1C[C@H]1C[C@H]3[C@H](N(C)C)C(O)=C(C(N)=O)C(=O)[C@@]3(O)C(O)=C1C2=O [TIGECYCLINE] | 0.25 (≈ 0.427 µM) | 1 (≈ 1.71 µM) | 1 (≈ 1.71 µM) | 1 (≈ 1.71 µM) | 2 (≈ 3.41 µM) | 1 (≈ 1.71 µM) | 4 (≈ 6.83 µM) | 0.5 (≈ 0.854 µM) | 0.5 (≈ 0.854 µM) | 1 (≈ 1.71 µM) | 0.25 (≈ 0.427 µM) | 0.25 (≈ 0.427 µM) | 2 (≈ 3.41 µM) | 0.25 (≈ 0.427 µM) | 1 (≈ 1.71 µM) |
| GENTAMICIN | 16 | 2 | 2 | 8 | 1 | 2 | 1 | – | 8 | 1 | – | 8 | 8 | 32 | – |
| POLYMYXIN B | 2 | 4 | 8 | 4 | 4 | 8 | 16 | 8 | 16 | 4 | 16 | 4 | 8 | 1 | 2 |
